Earlier results on two molecules are cited in patent US8057823B2, “Lipid nanocapsules, preparation process and use as medicine” (Universite d'Angers, priority 2000, dated 2011).

For the molecule `CS(=O)(=O)OCCCCOS(C)(=O)=O` [busulfan], the solubility in water entry is on record as “virtually insoluble”.
With `CC(=O)[C@H]1CC[C@H]2[C@@H]3CCC4=CC(=O)CC[C@]4(C)[C@H]3CC[C@]12C` [progesterone], the solubility in water entry is on record as “virtually insoluble”.
